From patent publication US11771685B2, “Compounds for the treatment of neurological or mitochondrial diseases” (MUSC FOUNDATION FOR RESEARCH DEVELOPMENT, priority 2018, dated 2023)
Like-named read-outs stand apart in the source and are kept apart here.

Tests used:
[1] = In vivo pharmacokinetics in CD-1 mice; set-up: species or system mouse; conditions: for concentration at 24 hr: read-out: Clast
Procedure: (§1) PK studies on 3 and 25 were carried out in CD-1 mice. Three males were dosed via oral gavage needle for oral administration at 20 mg/kg (10 mL/kg) or via intravenous administration at 5 mg/kg (10 mL/kg). Blood samples were taken at time intervals between 5 min and 24 hr from each animal.
The PK studies of 1 were performed by WuXi AppTec and PK studies of 3 and 25 were performed by Touchstone Biosciences (Peng et al., 2006b; Peng et al., 2001; Peng et al., 2006a; Peng et al., 2009). Male CD-1 mice were fed a standard laboratory rodent diet and housed in individual cages on a 12 hr light and 12 hr dark cycle with room temperature maintained at 22±3° C. and relative humidity at 50±20%. Animals were typically fasted overnight before dosing, with food returned after the 6 hr blood samples were obtained. Water was provided ad libitum throughout the study. The dosing solution of each test compound was prepared in a desired oral or intravenous formulation. Three to four animals were dosed via gavage needle for oral administration at 10-20 mg/kg (10-20 mL/kg) or via tail vein injection for IV administration at 2-5 mg/kg (2-5 mL/kg). […] Fluid replacement (1.5 mL of 0.9% NaCl injection, USP) was administered subcutaneously once after the 2 hr blood sampling. Blood samples were collected in BD Microtainer tubes coated with anticoagulant, placed on ice, and within 30 min, centrifuged at 15,000 g for 5 min to obtain plasma samples. All plasma samples were stored at −70° C. until analysis.
Plasma samples were prepared as follows. Three volumes of acetonitrile containing internal standard was added to one volume of plasma to precipitate proteins. Samples were centrifuged (3000 g for 10 min) and supernatant removed for analysis by LC-MS/MS. Calibration standards and quality controls were made by preparation of a 1 mg/mL stock solution and subsequently a series of working solutions in methanol:water (1:1, v/v) which were spiked into blank plasma to yield a series of calibration standard samples in the range of 1.0 ng/mL to 10 μg/mL and quality control samples at three concentration levels (low, middle and high). All incurred PK/PD plasma samples were treated identically to the calibration standards and quality control samples. LC-MS-MS analysis was performed utilizing multiple reaction monitoring for detection of characteristic ions for each drug candidate, additional related analytes and internal standard.
Plasma concentrations were measured as described above to determine a concentration vs. time profile. The area under the plasma concentration vs time curve (AUC) was calculated using the linear trapezoidal method. Fitting of the data to obtain pharmacokinetic parameters was carried out using non-compartmental analysis. Key PK parameters reported following intravenous administration are as follows: terminal half-life t1/2, initial plasma concentration C0, area under the plasma concentration vs. time curve AUC, volume of distribution at steady-state Vss, total plasma clearance CLp, and mean residence time MRT. Key PK parameters reported following extravascular administration are as follows: terminal half-life t1/2, maximum plasma concentration Cmax, time to reach maximum plasma concentration tmax, area under the plasma concentration vs. time curve AUC, mean residence time MRT, and bioavailability F. All parameters are expressed for individual animals as well as mean, standard deviation, and coefficient of variation.

[2] = tested on: PTZ-induced seizure activity in zebrafish larvae; experiment: Zebrafish PTZ-induced seizure model; assay type: in vivo; conditions: Danio rerio, 7 dpf larvae, 1 hr pre-treatment, 10 mM PTZ; read-out: Anti-seizure activity: lowest tested dose with significant difference vs PTZ-only group
Procedure: The zebrafish PTZ-induced seizure model was used to determine the most promising compounds' in vivo efficacy. Zebrafish larvae (7 dpf) were treated with the compound for 1 hr prior to inducing seizures with PTZ. As established by previous larval zebrafish anti-seizure studies (Rahn et al., 2014; Hansen et al., 2004; Baraban et al., 2005), total distance traveled by each fish after seizure induction was measured and used as a proxy for seizure activity. Following collection of locomotor data, observation of a startle response and visual inspection for abnormal morphology confirmed that alterations in swim activity were not caused by compound toxicity.
We induced seizures in 7 dpf zebrafish larvae by the addition of […] PTZ as originally developed by Baraban et al., 2005. In a 48-well plate, one 7-dpf zebrafish was added per well. Larvae were dosed with each compound at a sub-lethal dose 1 hr prior to PTZ treatment. Two control rows were included with each experiment—tank water only control and PTZ only. Seizures were induced by adding PTZ to wells to yield a final concentration of 10 mM. After 5 min, the plate was transferred to the Daniovision instrument (Noldus Information Technology) and the chamber light was turned on. After 2 min, MediaRecorder (Noldus) was used to record video for 15 min. A small number of videos were acquired at 25 frames per second, but the majority of data were acquired at 60 frames per second. […] Ethovision XT software (Noldus) was used to track the fish movement from the video images in order to calculate the total distance traveled over 15 min. All experimental comparisons were made between animals from the same clutch.
Statistical analyses were performed with GraphPad Prism 6 software. For the in vitro HT22 oxytosis assay, dose-response data were fit using GraphPad Prism's log(inhibitor) vs normalized response-variable slope parameters to determine EC50 values and 95% confidence intervals. For the zebrafish locomotive anti-seizure activity data, multiple comparisons were made using a one-way analysis of variance (ANOVA) with a Kruskal-Wallis Test, followed by the Dunn's Method to determine significant differences between all pairs or between control and experimental groups using the Dunn Method for Joint Ranking. Differences were considered statistically significant when p<0.05. Data from zebrafish experiments are represented as scatter dot plots of individual measurements, with means±standard deviation indicated by bars.

[3] = Clinical observations in dosed mice; assay type: in vivo; conditions: efficacy studies, 5% DMSO:95% Neobee formulation
Procedure: as §1
PO PK experiments were repeated for 25, with oral dosing at 20 mg/kg and 10 mL/kg of a suspension with 1% Tween 80:1% carboxymethylcellulose in water.
Table 2 provides a summary of efficacy studies in vivo in mice, and in rat brain slices, using the 5% DMSO:95% Neobee formulation.

[4] = intraperitoneal 20 mg/kg, 5% DMSO: 95% neobee
[5] = intravenous 5 mg/kg, 20% DMA: 40% PEG300: 40% H2O
[6] = male, CD-1, mouse, plasma, iv, 5 mg/kg, intravenous 5 mg/kg, 20% DMA: 40% PEG300: 40% H2O
[7] = male, CD-1, mouse, plasma, po, 20 mg/kg, oral 20 mg/kg, 5% DMSO: 95% Neobee
[8] = oral 20 mg/kg, 5% DMSO: 95% Neobee

In the case of `CC(C)CCNC1=CC(=O)c2ccccc2C1=O` [Compound 17, 2-(Isopentylamino)naphthalene-1,4-dione], the T1/2 [1, 4] is reported as 3.38 h, the tlast [1, 4] is reported as 24 h and the Clast [1, 5] is reported as 0.154 ng/mL. It also gave a T1/2 [1, 5] of 4.47 h, an AUC(0-t) ([1]; male, CD-1, mouse, plasma, ip, 20 mg/kg, intraperitoneal 20 mg/kg, 5% DMSO: 95% neobee) of 1720 ng·h/mL and an AUC(0-inf) [1, 6] of 637 ng·h/mL. The MRT inf [1, 6] was 0.874 h, the clearance ([1]; male, CD-1, mouse, plasma, iv, 5 mg/kg, intravenous 5 mg/kg, 20% DMA: 40% PEG300: 40% H2O, read-out: CLp) was 131 mL/min/kg and the Vd ([1]; male, CD-1, mouse, plasma, iv, 5 mg/kg, intravenous 5 mg/kg, 20% DMA: 40% PEG300: 40% H2O, read-out: Vss) was 6.89 L/kg. For the same molecule, the AUC(0-inf) [1, 7] was 914 ng·h/mL, the MRT inf [1, 7] was 2.5 h and the Tmax [1, 7] was 0.25 h. For the same molecule, the concentration at 24 hr ([1]; male, CD-1, mouse, plasma, intraperitoneal 20 mg/kg, 5% DMSO: 95% neobee) was 1.95 ng/mL, the C0 ([1]; male, CD-1, mouse, plasma, intravenous 5 mg/kg, 20% DMA: 40% PEG300: 40% H2O) was 1910 ng/mL and the concentration at 24 hr ([1]; male, CD-1, mouse, plasma, oral 20 mg/kg, 5% DMSO: 95% Neobee) was 1.43 ng/mL. For the same molecule, the Cmax [1, 8] was 1025 ng/mL, the F [1, 8] was 35.9% and the t1/2 [1, 8] was 5.28 h. The tlast [1, 8] was 24 h, the minimal effective concentration [2] was 5 µM and the pigmented urine [3] was “Pigmented urine was not seen”.
